Assay results: US12077503B2, “Substituted cyclic amides and their use as herbicides” (FMC CORPORATION, priority 2015, dated 2024)

Legend:
Assay type in all cases: in vivo
Kochia (Kochia scoparia) [1] = test: Test A preemergence; details: for Plant response rating, Kochia: 125 g ai/ha; for Kochia plant response rating (0 to 100 scale, 0 is no effect, 100 is complete control): 500 g ai/ha, visual injury approx. 10 d
Description: (§1) Seeds of plant species selected from barnyardgrass (Echinochloa crus-galli), Kochia (Kochia scoparia), ragweed (common ragweed, Ambrosia elatior), ryegrass, Italian (Italian ryegrass, Lolium multiflorum), crabgrass, large (Digitaria sanguinalis), giant foxtail (Setaria faberii), green foxtail (Setaria viridis), morningglory (Ipomoea spp.), pigweed (Amaranthus retroflexus), velvetleaf (Abutilon theophrasti), wheat (Triticum aestivum), and corn (Zea mays) were planted into a blend of loam soil and sand and treated preemergence with a directed soil spray using test chemicals formulated in anon-phytotoxic solvent mixture which included a surfactant.
(§2) At the same time, plants selected from these crop and weed species and also blackgrass (Alopecurus myosuroides), and Galium (catchweed bedstraw, Galium aparine) were planted in pots containing the same blend of loam soil and sand and treated with postemergence applications of test chemicals formulated in the same manner. Plants ranged in height from 2 to 10 cm and were in the one- to two-leaf stage for the postemergence treatment. Treated plants and untreated controls were maintained in a greenhouse for approximately 10 d, after which time all treated plants were compared to untreated controls and visually evaluated for injury. Plant response ratings, summarized in Table A, are based on a 0 to 100 scale where 0 is no effect and 100 is complete control. A dash (-) response means no test result.

[2] = tested on: barnyardgrass (Echinochloa crus-galli); test: Test A preemergence; details: for Plant response rating, Barnyardgrass: 125 g ai/ha; for Barnyardgrass plant response rating (0 to 100 scale, 0 is no effect, 100 is complete control): 500 g ai/ha, visual injury approx. 10 d
Description: as §1, §2

[3] = tested on: giant foxtail (Setaria faberii); test: Test A preemergence; details: for Plant response rating, Foxtail, Giant: 125 g ai/ha; for Foxtail, Giant plant response rating (0 to 100 scale, 0 is no effect, 100 is complete control): 500 g ai/ha, visual injury approx. 10 d
Description: as §1, §2

[4] = tested on: pigweed (Amaranthus retroflexus); test: Test A preemergence; details: for Plant response rating, Pigweed: 125 g ai/ha; for Pigweed plant response rating (0 to 100 scale, 0 is no effect, 100 is complete control): 500 g ai/ha, visual injury approx. 10 d
Description: as §1, §2

[5] = tested on: ragweed (common ragweed, Ambrosia elatior); test: Test A preemergence; details: for Plant response rating, Ragweed: 125 g ai/ha
Description: as §1, §2

[6] = tested on: ryegrass, Italian (Italian ryegrass, Lolium multiflorum); test: Test A preemergence; details: for Plant response rating, Ryegrass, Italian: 125 g ai/ha; for Ryegrass, Italian plant response rating (0 to 100 scale, 0 is no effect, 100 is complete control): 500 g ai/ha, visual injury approx. 10 d
Description: as §1, §2

[7] = tested on: Galium (catchweed bedstraw, Galium aparine); test: Test A postemergence
Description: as §1, §2

Kochia (Kochia scoparia) [8] = test: Test A postemergence
Description: as §1, §2

[9] = tested on: barnyardgrass (Echinochloa crus-galli); test: Test A postemergence; details: for Barnyardgrass plant response rating: 125 g ai/ha, visual injury rating on 0 to 100 scale (0 no effect, 100 complete control), approx. 10 d; for Plant response rating, Barnyardgrass: 500 g ai/ha
Description: as §1, §2

[10] = tested on: blackgrass (Alopecurus myosuroides); test: Test A postemergence; details: for Blackgrass plant response rating: 125 g ai/ha, visual injury rating on 0 to 100 scale (0 no effect, 100 complete control), approx. 10 d; for Plant response rating, Blackgrass: 500 g ai/ha
Description: as §1, §2

corn (Zea mays) = test: Test A postemergence
Description: as §1, §2

[11] = tested on: giant foxtail (Setaria faberii); test: Test A postemergence
Description: as §1, §2

[12] = tested on: pigweed (Amaranthus retroflexus); test: Test A postemergence
Description: as §1, §2

[13] = tested on: ragweed (common ragweed, Ambrosia elatior); test: Test A postemergence
Description: as §1, §2

[14] = tested on: ryegrass, Italian (Italian ryegrass, Lolium multiflorum); test: Test A postemergence
Description: as §1, §2

[15] = tested on: wheat (Triticum aestivum); test: Test A postemergence
Description: as §1, §2

[16] = tested on: barnyardgrass (Echinochloa crus-galli); test: Test B flooded paddy test; details: Flood, 0 to 100 scale where 0 is no effect and 100 is complete control, 13 to 15 d
Procedure: (§3) Plant species in the flooded paddy test selected from rice (Oryra sativa), sedge, umbrella (small-flower umbrella sedge, Cyperus difformis), ducksalad (Heteranthera limosa), and barnyardgrass (Echinochloa crus-galli) were grown to the 2-leaf stage for testing. At time of treatment, test pots were flooded to 3 cm above the soil surface, treated by application of test compounds directly to the paddy water, and then maintained at that water depth for the duration of the test. Treated plants and controls were maintained in a greenhouse for 13 to 15 d, after which time all species were compared to controls and visually evaluated. Plant response ratings, summarized in Table B, are based on a scale of 0 to 100 where 0 is no effect and 100 is complete control. A dash (-) response means no test result.

[17] = tested on: ducksalad (Heteranthera limosa); test: Test B flooded paddy test; details: Flood, 0 to 100 scale where 0 is no effect and 100 is complete control, 13 to 15 d
Procedure: as §3

rice (Oryra sativa) = test: Test B flooded paddy test; details: Flood, 0 to 100 scale where 0 is no effect and 100 is complete control, 13 to 15 d
Procedure: as §3

[18] = tested on: sedge, umbrella (small-flower umbrella sedge, Cyperus difformis); test: Test B flooded paddy test; details: Flood, 0 to 100 scale where 0 is no effect and 100 is complete control, 13 to 15 d
Procedure: as §3

[19] = preemergence, 0 to 100 scale (0 no effect, 100 complete control)
[20] = 125 g ai/ha, postemergence, visual injury rating on 0 to 100 scale (0 no effect, 100 complete control), approx. 10 d
[21] = 500 g ai/ha, postemergence, 0 to 100 scale, 0 no effect, 100 complete control
[22] = postemergence, 0 to 100 scale, 0 no effect, 100 complete control
[23] = Preemergence, visual injury after approximately 10 d, 0 to 100 scale where 0 is no effect and 100 is complete control
[24] = 125 g ai/ha, postemergence, visual rating after approx. 10 d, 0 to 100 scale (0 no effect, 100 complete control)
[25] = Postemergence, 500 g ai/ha, 0 to 100 scale where 0 is no effect and 100 is complete control
[26] = Postemergence, 0 to 100 scale where 0 is no effect and 100 is complete control

## Cc1cccc(NC(=O)C2C(=O)NCC2c2cccc(OC(F)F)c2)c1F (centres unmarked) [Compound 420]
Kochia (Kochia scoparia) [1]; [19]
  Plant response rating, Kochia: 0
Kochia (Kochia scoparia) [1]; Preemergence
  Kochia plant response rating (0 to 100 scale, 0 is no effect, 100 is complete control): 30
[2]; [19]
  Plant response rating, Barnyardgrass: 70
[2]; Preemergence
  Barnyardgrass plant response rating (0 to 100 scale, 0 is no effect, 100 is complete control): 90
[3]; [19]
  Plant response rating, Foxtail, Giant: 90
[3]; Preemergence
  Foxtail, Giant plant response rating (0 to 100 scale, 0 is no effect, 100 is complete control): 90
[4]; [19]
  Plant response rating, Pigweed: 0
[4]; Preemergence
  Pigweed plant response rating (0 to 100 scale, 0 is no effect, 100 is complete control): 30
[5]; [19]
  Plant response rating, Ragweed: 0
[5]; Preemergence, 500 g ai/ha, visual injury approx. 10 d
  Ragweed plant response rating (0 to 100 scale, 0 is no effect, 100 is complete control): 0
[6]; [19]
  Plant response rating, Ryegrass, Italian: 0
[6]; Preemergence
  Ryegrass, Italian plant response rating (0 to 100 scale, 0 is no effect, 100 is complete control): 0
[7]; [20]
  Galium plant response rating: 0
[7]; [21]
  Plant response rating, Galium: 0
Kochia (Kochia scoparia) [8]; [20]
  Kochia plant response rating: 0
Kochia (Kochia scoparia) [8]; [21]
  Plant response rating, Kochia: 0
[9]; postemergence
  Barnyardgrass plant response rating: 80
[9]; [22]
  Plant response rating, Barnyardgrass: 90
[10]; postemergence
  Blackgrass plant response rating: 0
[10]; [22]
  Plant response rating, Blackgrass: 0
Corn (Zea mays); [20]
  Corn plant response rating: 0
Corn (Zea mays); [21]
  Plant response rating, Corn: 0
[11]; [20]
  Foxtail, Giant plant response rating: 70
[11]; [21]
  Plant response rating, Foxtail, Giant: 80
[12]; [20]
  Pigweed plant response rating: 0
[12]; [21]
  Plant response rating, Pigweed: 0
[13]; [20]
  Ragweed plant response rating: 0
[13]; [21]
  Plant response rating, Ragweed: 0
[14]; [20]
  Ryegrass, Italian plant response rating: 0
[14]; [21]
  Plant response rating, Ryegrass, Italian: 0
[15]; [20]
  Wheat plant response rating: 0
[15]; [21]
  Plant response rating, Wheat: 0
[16]; 500 g ai/ha
  Plant response rating, Barnyardgrass: 65
[17]; 500 g ai/ha
  Plant response rating, Ducksalad: 85
Rice (Oryra sativa); 500 g ai/ha
  Plant response rating, Rice: 25
[18]; 500 g ai/ha
  Plant response rating, Sedge, Umbrella: 0

## COc1c(F)ccc(NC(=O)C2C(=O)NCC2c2cccc(OC(F)(F)C(F)F)c2)c1F (racemic) [Compound 540]
Kochia (Kochia scoparia) [1]; [23]
  Plant response rating, Kochia: 0
Kochia (Kochia scoparia) [1]; Preemergence
  Kochia plant response rating (0 to 100 scale, 0 is no effect, 100 is complete control): 20
[2]; [23]
  Plant response rating, Barnyardgrass: 80
[2]; Preemergence
  Barnyardgrass plant response rating (0 to 100 scale, 0 is no effect, 100 is complete control): 90
[3]; [23]
  Plant response rating, Foxtail, Giant: 90
[3]; Preemergence
  Foxtail, Giant plant response rating (0 to 100 scale, 0 is no effect, 100 is complete control): 90
[4]; [23]
  Plant response rating, Pigweed: 0
[4]; Preemergence
  Pigweed plant response rating (0 to 100 scale, 0 is no effect, 100 is complete control): 60
[5]; [23]
  Plant response rating, Ragweed: 0
[6]; [23]
  Plant response rating, Ryegrass, Italian: 0
[6]; Preemergence
  Ryegrass, Italian plant response rating (0 to 100 scale, 0 is no effect, 100 is complete control): 40
[7]; [24]
  Plant response rating, Galium: 60
[7]; [25]
  Plant response rating, Galium: 70
Kochia (Kochia scoparia) [8]; [24]
  Plant response rating, Kochia: 0
Kochia (Kochia scoparia) [8]; [25]
  Plant response rating, Kochia: 0
[9]; postemergence
  Barnyardgrass plant response rating: 60
[9]; [26]
  Plant response rating, Barnyardgrass: 70
[10]; postemergence
  Blackgrass plant response rating: 50
[10]; [26]
  Plant response rating, Blackgrass: 60
Corn (Zea mays); [24]
  Plant response rating, Corn: 30
Corn (Zea mays); [25]
  Plant response rating, Corn: 60
[11]; [24]
  Plant response rating, Foxtail, Giant: 70
[11]; [25]
  Plant response rating, Foxtail, Giant: 90
[12]; [24]
  Plant response rating, Pigweed: 0
[12]; [25]
  Plant response rating, Pigweed: 0
[13]; [24]
  Plant response rating, Ragweed: 0
[13]; [25]
  Plant response rating, Ragweed: 20
[14]; [24]
  Plant response rating, Ryegrass, Italian: 0
[14]; [25]
  Plant response rating, Ryegrass, Italian: 30
[15]; [24]
  Plant response rating, Wheat: 0
[15]; [25]
  Plant response rating, Wheat: 60
[16]; 250 g ai/ha
  Plant response rating, Barnyardgrass: 55
[17]; 250 g ai/ha
  Plant response rating, Ducksalad: 75
Rice (Oryra sativa); 250 g ai/ha
  Plant response rating, Rice: 0
[18]; 250 g ai/ha
  Plant response rating, Sedge, Umbrella: 0
